Test results taken from US9150527B2, “Metalloenzyme inhibitor compounds” (Innocrin Pharmaceuticals, Inc., priority 2011, dated 2015).

How the values were obtained:
CYP2C9 = CYP2C9 (Homo sapiens (Human), UniProt P11712); assay: biochemical
CYP17 = CYP17 (Rattus norvegicus (Rat), UniProt P11715); assay: CYP17 metalloenzyme activity, rat testicular microsomes; format: biochemical; conditions: pooled rat testicular microsomes
Procedure: CYP17 activity was assayed according to the following procedure.

CYP2C19 = CYP2C19 (Homo sapiens (Human), UniProt P33261); assay: biochemical
CYP2C19, sequence (P33261 whole entry): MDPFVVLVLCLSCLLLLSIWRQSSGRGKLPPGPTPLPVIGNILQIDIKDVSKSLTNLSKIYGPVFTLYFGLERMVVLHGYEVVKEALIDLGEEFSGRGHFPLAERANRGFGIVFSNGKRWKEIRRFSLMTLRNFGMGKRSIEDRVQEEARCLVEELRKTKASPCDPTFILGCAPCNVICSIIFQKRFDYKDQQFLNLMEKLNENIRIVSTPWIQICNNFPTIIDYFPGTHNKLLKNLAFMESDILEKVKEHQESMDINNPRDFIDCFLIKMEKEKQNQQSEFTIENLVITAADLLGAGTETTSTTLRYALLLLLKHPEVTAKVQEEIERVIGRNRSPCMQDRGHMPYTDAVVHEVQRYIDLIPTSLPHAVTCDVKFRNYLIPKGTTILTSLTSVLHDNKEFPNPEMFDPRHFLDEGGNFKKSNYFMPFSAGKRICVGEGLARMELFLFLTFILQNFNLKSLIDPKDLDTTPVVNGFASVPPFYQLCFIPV

CYP3A4 = CYP3A4 (Homo sapiens (Human), UniProt P08684); assay: Inhibition of liver cytochrome P450 enzymes, pooled human liver microsomes
CYP3A4, sequence (P08684 whole entry): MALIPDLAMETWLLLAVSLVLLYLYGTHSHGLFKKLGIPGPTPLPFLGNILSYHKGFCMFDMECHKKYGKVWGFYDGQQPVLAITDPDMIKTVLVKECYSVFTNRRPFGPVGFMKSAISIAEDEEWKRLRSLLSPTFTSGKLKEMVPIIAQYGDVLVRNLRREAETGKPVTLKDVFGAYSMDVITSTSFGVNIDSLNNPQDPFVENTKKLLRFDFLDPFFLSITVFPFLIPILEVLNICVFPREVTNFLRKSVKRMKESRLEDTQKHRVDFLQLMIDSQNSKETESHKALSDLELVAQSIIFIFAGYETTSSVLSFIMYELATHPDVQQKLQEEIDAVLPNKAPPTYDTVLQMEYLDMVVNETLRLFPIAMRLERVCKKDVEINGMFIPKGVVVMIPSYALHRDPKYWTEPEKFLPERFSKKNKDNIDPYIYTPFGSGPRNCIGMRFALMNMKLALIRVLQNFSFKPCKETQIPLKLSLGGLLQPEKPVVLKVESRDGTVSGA

CYP17, sequence (P11715 whole entry): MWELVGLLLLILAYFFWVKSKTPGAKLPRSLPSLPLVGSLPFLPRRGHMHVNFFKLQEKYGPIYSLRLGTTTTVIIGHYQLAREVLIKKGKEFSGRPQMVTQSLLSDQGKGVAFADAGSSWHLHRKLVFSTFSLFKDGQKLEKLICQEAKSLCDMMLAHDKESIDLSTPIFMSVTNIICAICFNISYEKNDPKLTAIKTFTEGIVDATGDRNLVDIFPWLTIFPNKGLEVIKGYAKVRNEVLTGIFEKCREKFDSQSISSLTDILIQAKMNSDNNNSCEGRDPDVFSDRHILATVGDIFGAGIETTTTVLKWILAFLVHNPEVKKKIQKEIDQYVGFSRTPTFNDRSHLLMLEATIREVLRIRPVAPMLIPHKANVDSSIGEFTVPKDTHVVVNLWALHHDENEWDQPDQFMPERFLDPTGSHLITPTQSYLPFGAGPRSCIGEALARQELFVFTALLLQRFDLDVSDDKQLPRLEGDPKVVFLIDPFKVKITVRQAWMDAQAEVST
CYP2C9, sequence (P11712 whole entry): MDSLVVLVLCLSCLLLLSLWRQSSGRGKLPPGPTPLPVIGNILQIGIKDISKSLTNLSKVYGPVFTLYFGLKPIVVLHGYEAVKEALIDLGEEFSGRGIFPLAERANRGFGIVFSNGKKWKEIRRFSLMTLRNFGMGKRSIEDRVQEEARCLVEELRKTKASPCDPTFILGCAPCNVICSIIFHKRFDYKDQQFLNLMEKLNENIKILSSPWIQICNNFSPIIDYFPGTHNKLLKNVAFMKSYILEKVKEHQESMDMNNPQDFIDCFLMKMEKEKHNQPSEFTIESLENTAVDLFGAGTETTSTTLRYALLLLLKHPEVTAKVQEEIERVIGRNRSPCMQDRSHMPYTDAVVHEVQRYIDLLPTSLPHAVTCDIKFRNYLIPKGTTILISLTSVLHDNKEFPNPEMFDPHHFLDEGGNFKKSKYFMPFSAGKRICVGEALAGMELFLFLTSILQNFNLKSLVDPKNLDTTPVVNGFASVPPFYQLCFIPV

- IC50 (CYP2C9): 33 µM
- IC50 (CYP17): 0.29 µM
- IC50 (CYP2C19): 3 µM
- IC50 (CYP3A4): 0.77 µM
SMILES: COc1cc2ccc(C(O)(c3cncs3)C(C)C)cc2cc1OC (stereo not shown) [Example 2, 1-(6,7-dimethoxynaphthalen-2-yl)-2-methyl-1-(thiazol-5-yl)propan-1-ol]
